Reference: article PMC6480704, “Antiproliferative Aspidosperma-Type Monoterpenoid Indole Alkaloids from Bousigonia mekongensis Inhibit Tubulin Polymerization” (Molecules, 2019)
“Also recorded” adds a separate entry of the source. Where two headings read alike, the source gives them in different places.

Tests used:
[1] = tested on: KB (originally isolated from epidermoid carcinoma of the nasopharynx); assay: Antiproliferative SRB assay, KB; type: cell-based; conditions: Homo sapiens, 72 h, read-out: IC50 KB
Procedure: (§1) We tested the fourteen known aspidosperma-type alkaloids (1–14) against chemosensitive KB (originally isolated from epidermoid carcinoma of the nasopharynx) and P-gp over-expressing multidrug-resistant (MDR) KB subline KB-VIN, as well as three additional human cancer cell lines, A549 (lung carcinoma), MDA-MB-231 (triple negative breast cancer), and MCF-7 (estrogen receptor-positive breast cancer), using a sulforhodamine B (SRB) assay (Table 1).
(§2) Antiproliferative activity was determined by the sulforhodamine B (SRB) colorimetric assay as previously described. In brief, human tumor cell lines were cultured in RPMI-1640 medium containing 2 mM l-glutamine and 25 mM HEPES (Gibco), supplemented with 10% fetal bovine serum (Speciality Media), 100 µg/mL streptomycin, 100 IU/mL penicillin, and 0.25 µg/mL amphotericin B (Corning). MDR stock cells (KB-VIN) were maintained in the presence of 100 nM vincristine (VIN) (Sigma-Aldrich, Saint Louis, MI, USA).
(§3) Freshly trypsinized cell suspensions were seeded in 96-well microtiter plates at densities of 4000–11,000 cells per well (based on the cell lines) with compounds. After 72 h in culture with test compounds, cells were fixed in 10% trichloroacetic acid followed by staining with 0.04% sulforhodamine B (Sigma-Aldrich). The bound SRB was solubilized in 10 mM Tris-base and the absorbance at 515 nm was measured using a Microplate Reader (ELx800, Bio-Tek Instruments, Winooski, VT, USA) operated by Gen5 software (BioTek) after solubilizing the protein-bound dye with 10 mM Tris base. The mean IC50 is the concentration of agent that reduced cell growth by 50% compared with vehicle (DMSO) control under the experimental conditions and is the average from at least three independent experiments with duplicate samples.
(§4) The following human tumor cell lines were used in the assay: A549 (lung carcinoma), MDA-MB-231 (triplen-egative breast cancer), KB (originally isolated from epidermoid carcinoma of the nasopharynx), KB-VIN (VIN-resistant KB subline showing MDR phenotype by overexpressing P-gp), MCF-7 (estrogen receptor (ER)-positive, HER2-negative breast cancer). […] All cell lines were obtained from the Lineberger Comprehensive Cancer Center (UNC-CH) or from ATCC (Manassas, VA), except KB-VIN, which was a generous gift from Professor Y.-C. Cheng (Yale University). Paclitaxel was purchased from Sigma-Aldrich.

[2] = tested on: A549, MDA-MB-231, KB, KB-VIN, and MCF-7; assay: Antiproliferative SRB assay, values stated across several cell lines; type: cell-based, human; conditions: for antiproliferative activity (in words): five human tumor cell lines including MDR subline KB-VIN
Procedure: as §1, §2, §3, §4

[3] = tested on: MCF-7 (estrogen receptor-positive breast cancer); assay: Antiproliferative SRB assay, MCF-7; type: cell-based; conditions: Homo sapiens, read-out: IC50 MCF-7
Procedure: as §1, §2, §3, §4

[4] = tested on: KB-VIN (VIN-resistant KB subline showing MDR phenotype by overexpressing P-gp); assay: Antiproliferative SRB assay, KB-VIN; conditions: for IC50: Homo sapiens, KBVIN, 72 h, read-out: IC50 KB-VIN; for fold higher concentration required against KB-VIN cells: KB-VIN compared with chemosensitive cells
Procedure: as §1, §2, §3, §4

[5] = tested on: KB-VIN cells; assay: Immunofluorescence staining of α-tubulin, pH3 and DNA; type: cell-based, human; conditions: 24 h, 3 × IC50
Procedure: (§5) Figure 2 Mitotic defects in KB-VIN cells treated by compounds. […] Cell cycle distributions (sub-G1, G1, S, G2/M) were analyzed using flow cytometry after staining cells with propidium iodide (PI). […] Fixed cells were stained with antibodies to α-tubulin (green) and phospho-histone H3 (pH3, red), and DAPI was used for DNA (blue). Stained cells were observed by confocal fluorescence microscope. The represented image is a projection of 15~20 optical sections acquired at 0.5~1 µm intervals. […] Bar, 0.025 mm. Additional images are available in Supplementary Figure S1.
To determine whether the cell cycle arrest was due to an antimicrotubule effect, cells treated with compounds were analyzed by immunocytochemistry using antibodies to α-tubulin for microtubules and mitotic spindles, Ser10-phosphorylated histone H3 (pH3) for the condensed chromatins and 4′,6-diamidino-2-phenylindole (DAPI) for DNA. […] Thus, we concluded that these alkaloids are tubulin polymerization inhibitors.
Immunocytochemical analysis was performed as previously described. […] After treatment of cells with the agent for 24 h, cells were fixed with 4% paraformaldehyde in PBS and permeabilized with 0.5% Triton X-100 in PBS. Fixed cells were labeled with mouse monoclonal antibody to α-tubulin (B5-1-2, Sigma) and rabbit IgG to Ser10-phosphorylated histone H3 (p-H3) (#06570, EMD Millipore), followed by FITC-conjugated antibody to mouse IgG (Sigma) and Alexa Fluor 549-conjugated antibody to rabbit IgG (Life Technologies). Nuclei were labeled with DAPI (Sigma). Fluorescently-labeled cells were observed using a confocal microscope (Zeiss, LSM700) with ZEN (black edition) software (Zeiss). The 15~20 optical sections acquired at 0.5~1 µm intervals were stacked and reconstructed using ZEN (black edition) software. Experiments were repeated at least twice for each compound. Final images were prepared using Adobe Photoshop CS3.

[6] = tested on: MDA-MB-231 (triple negative breast cancer); assay: Antiproliferative SRB assay, MDA-MB-231; type: cell-based; conditions: Homo sapiens, read-out: IC50 MDA-MB-231
Procedure: as §1, §2, §3, §4

[7] = tested on: KB-VIN cells; assay: Cell cycle analysis by flow cytometry (PI staining); type: cell-based, human; conditions: 24 h, 1 × IC50 or 3 × IC50
Procedure: KB-VIN cells were treated with compounds 3, 4, 6, 7, and 13 at their IC50 (1 × IC50) or three-fold IC50 (3 × IC50) concentration, and the cell cycle progression was analyzed by flow cytometer (Figure 2A).
as §5
KB-VIN cells were seeded in 12-well plates at a density of 1 × 10^5 per well and incubated overnight. […] The DNA contents of stained cells were analyzed by flow cytometer (LSRFortessa, BD Biosciences) controlled by FACSDiva software (BD Biosciences). Paclitaxel (PXL) was used at 3 or 6 µM. […] Experiments were repeated a minimum of two times.

[8] = tested on: A549 (lung carcinoma); assay: Antiproliferative SRB assay, A549; type: cell-based; conditions: Homo sapiens, read-out: IC50 A549
Procedure: as §1, §2, §3, §4

[9] = five human tumor cell lines, read-out: IC50 range over the cell lines tested
[10] = SRB assay, positive controls, unit nM
[11] = MCF7, SRB assay, 72 h, positive controls, unit nM
[12] = MDA-MB-231, SRB assay, 72 h, positive controls, unit nM
[13] = A549, SRB assay, 72 h, positive controls, unit nM
[14] = Homo sapiens, A549, KB, KB-VIN, range stated for the group of compounds, read-out: IC50 values ranging over A549, KB and KB-VIN cells

Row | SMILES | IC50 ([1]; SRB assay) | antiproliferative activity (in words) [2] | IC50 ([3]; MCF7, SRB assay, 72 h) | IC50 [4] | IC50 ([6]; MDA-MB-231, SRB assay, 72 h) | IC50 ([8]; A549, SRB assay, 72 h) | also measured
1 | CC[C@@]12CC(C(=O)OC)=C3Nc4ccccc4[C@@]34CCN([C@H](CC(C)=O)[C@@H]3O[C@@H]31)[C@@H]24 [Compound 4, melodinine S] | 5800 ± 300 nM | exhibited antiproliferative activity against all cell lines; also recorded: significant antiproliferative effects against all five tumor cell lines | 10000 ± 900 nM | 6.3 ± 0.2 µM | 8200 ± 800 nM | 5600 nM | IC50 [2, 9]: 5.6 to 10 µM; microtubule / mitotic spindle morphology [5]: dotted tubulin aggregations without spindles; effect on cell cycle progression [7]: accumulation of cells in the G2/M phase; also recorded: cell cycle arrest at G2/M
2 | CC(=O)O[C@H]1C(=O)[C@@]2(C)[C@H]([C@H](OC(=O)c3ccccc3)[C@]3(O)C[C@H](OC(=O)[C@H](O)[C@@H](NC(=O)c4ccccc4)c4ccccc4)C(C)=C1C3(C)C)[C@]1(OC(C)=O)CO[C@@H]1C[C@@H]2O [PXL, paclitaxel, reference compound] |  |  |  | 2.36 ± 0.0595 µM |  |  | IC50 [1, 10]: 3.7 ± 1.1 nM; IC50 [3, 11]: 8.8 ± 1 nM; fold higher concentration required against KB-VIN cells [4]: 600 fold; IC50 [6, 12]: 7 ± 0.9 nM; IC50 [8, 13]: 4.5 ± 0.9 nM
3 | COC(=O)C1=C2Nc3cc(OC)ccc3C23CCN2CC=CC(C(C)OC(C)=O)(C1)C23 [Compound 14, 19-(R)-acetoxy-11-methoxytabersonine] | > 40000 nM | essentially inactive | > 40000 nM | > 40 µM | > 40000 nM | > 40000 nM | 
4 | CC[C@]12CCCN3CC[C@]4(C(=C(C(=O)OC)C1)Nc1ccccc14)[C@@H]32 [Compound 2, vincadifformine] | > 40000 nM | essentially inactive | > 40000 nM | > 40 µM | > 40000 nM | > 40000 nM | 
5 | CC[C@]12C=CCN3CC[C@]4(C(=C(C(=O)OC)C1)Nc1ccccc14)[C@@H]32 [Compound 1, tabersonine] |  | exhibited antiproliferative activity against all cell lines |  | 7.4 ± 0.3 µM |  |  | IC50 [1]: 5500 nM; IC50 ([3]; MCF7, 72 h): 7200 ± 400 nM; IC50 ([6]; MDA-MB-231, 72 h): 5900 nM; IC50 ([8]; A549, 72 h): 6900 ± 100 nM
6 | CC[C@]12C=C[C@@H](CC(C)=O)N3CC[C@]4(C(=C(C(=O)OC)C1)Nc1ccccc14)[C@@H]32 [Compound 3, 3α-acetonyl-tabersonine] | 600 nM | exhibited antiproliferative activity against all cell lines; also recorded: significant antiproliferative effects against all five tumor cell lines | 2200 ± 200 nM | 0.6 ± 0.1 µM | 900 nM | 600 nM | IC50 [2, 14]: 0.5 to 0.9 µM; microtubule / mitotic spindle morphology [5]: dotted tubulin aggregations without spindles; effect on cell cycle progression [7]: accumulation of cells in the G2/M phase; also recorded: cell cycle arrest at G2/M
7 | CC[C@@]12CC(C(=O)OC)=C3Nc4ccccc4[C@@]34CCN(C[C@H]3O[C@H]31)[C@@H]24 [Compound 8, pachysiphine] | > 40000 nM | essentially inactive | > 40000 nM | > 40 µM | 34500 ± 200 nM | 27700 ± 100 nM | 
8 | CC[C@]12C=CCN3CC[C@]4(C(=C(C(=O)OC)C1)Nc1cc(OC)ccc14)[C@@H]32 [Compound 12, 11-methoxytabersonine] | 5400 ± 400 nM | exhibited antiproliferative activity against all cell lines |  | 5.8 ± 0.1 µM | 6800 ± 1100 nM | 5200 ± 100 nM | IC50 ([3]; MCF7, 72 h): 8200 ± 900 nM
9 | CC[C@]1(O)C[C@H]2CN(CCc3c([nH]c4ccccc34)[C@@](C(=O)OC)(c3cc4c(cc3OC)N(C=O)[C@H]3[C@@](O)(C(=O)OC)[C@H](OC(C)=O)[C@]5(CC)C=CCN6CC[C@]43[C@@H]65)C2)C1 [VIN, vincristine, reference compound] |  |  |  | 2.48 ± 0.0282 µM |  |  | IC50 [1, 10]: 4.4 ± 0.1 nM; IC50 [3, 11]: 7.3 ± 0.2 nM; fold higher concentration required against KB-VIN cells [4]: 600 fold; microtubule / mitotic spindle morphology [5]: with multipolar spindles; IC50 [6, 12]: 32 ± 0.5 nM; IC50 [8, 13]: 22.9 ± 2.4 nM
10 | COC(=O)C1=C2Nc3ccccc3C23CCN2CC=CC(C(C)O)(C1)C23 [Compound 10, 19-(R)-hydroxytabersonine] | > 40000 nM | essentially inactive | > 40000 nM | > 40 µM | > 40000 nM | > 40000 nM | 
11 | COC(=O)C1=C2Nc3ccccc3C23CCN2CC=CC(C(C)OC(C)=O)(C1)C23 [Compound 11, 19-(R)-acetoxytabersonine] | 26500 ± 2500 nM | essentially inactive | > 40000 nM | > 40 µM | > 40000 nM | > 40000 nM | IC50 [2, 9]: > 26.5 µM
12 | CC[C@@]12CC(C(=O)OC)=C3Nc4cc(OC)ccc4[C@@]34CCN(C[C@H]3O[C@H]31)[C@@H]24 [Compound 9, lochnerinine] | 900 nM | exhibited antiproliferative activity against all cell lines | 10200 ± 500 nM | 0.7 µM | 6000 ± 800 nM | 800 nM | fold rise in potency by a methoxy group at C-11 ([2]; 6 compared with 5, 9 compared with 8): ~ 60 fold; IC50 [2, 14]: 0.5 to 0.9 µM
